Test results published in patent publication US8895571B2, “Isoindolinone and pyrrolopyridinone derivatives as Akt inhibitors” (Incyte Corporation, priority 2011, dated 2014).

What was measured:
Type in all cases: biochemical
[1] = target: T1, Full length Akt1 (Homo sapiens, UniProt P31749); assay: In vitro Akt kinase enzymatic assay (HTRF), Akt1; settings: 0.4 nM Akt1, substrate solution with 5 mM ATP, 25° C. 1 hr
T1 construct: Full length Akt1 (cat #P2999); purchased PerkinElmer P2999
Protocol: (§1) Compounds herein were tested for inhibitory activity of Akt targets according to the following in vitro assay. Full length Akt1 (cat #P2999), Akt2 (cat #PV3184), Akt3 (cat #PV3185), peptide substrate, Ulight-Crosstide (cat #TRF0106-M), Ultra-Europium anti-phospho-Crosstide (cat #TRF-0202-M), and 10×LANCE detection buffer (cat #CR97-100) were purchased from PerkinElmer. In general, assay buffer conditions were chosen based on obtaining optimal enzymatic and linear activities. The assay buffer contains 50 mM HEPES, 10 mM MgCl2, 5 mM DTT, 0.005% Tween20 at pH 7.8. Compound stock (0.001 mM) was prepared in DMSO. The compound plate was prepared by 3-fold and 11-point serial dilutions. 0.5 μL of the compound in DMSO was transferred from the compound plate to the assay plate. Enzyme solution (0.4 nM of Akt1, 0.6 nM of Akt2 or 0.6 nM of Akt3) was prepared in the assay buffer. Note that the enzyme concentration given is based on the given stock concentration reported by the vendor. 0.1 μM substrate solution was prepared in the assay buffer with addition of 5 mM ATP. 10 μL of the enzyme solution was added to the assay plate and then 10 μL of substrate solution was added to the assay plate. The plate was protected from light and the reaction was incubated at 25° C. for 1 hr. The reaction was stopped by adding 10 μL of a solution containing 30 mM EDTA, and 3 nM Ultra Europium anti-phospho Crosstide in 1× detection buffer. The plate was incubated for 15-30 min at room temperature and HTRF (homogenous time resolved fluorescence) was measured on a plate reader. Percentage of inhibition was calculated for each concentration and IC50 value was generated from curve fitting. See Table 8 for data related to compounds of the examples.

[2] = target: T2, Full length Akt2 (Homo sapiens, UniProt P31751); assay: In vitro Akt kinase enzymatic assay (HTRF), Akt2; settings: 0.6 nM Akt2, substrate solution with 5 mM ATP, 25° C. 1 hr
T2 construct: Full length Akt1 (cat #P2999), Akt2 (cat #PV3184); purchased PerkinElmer PV3184
T2 sequence (P31751 whole entry): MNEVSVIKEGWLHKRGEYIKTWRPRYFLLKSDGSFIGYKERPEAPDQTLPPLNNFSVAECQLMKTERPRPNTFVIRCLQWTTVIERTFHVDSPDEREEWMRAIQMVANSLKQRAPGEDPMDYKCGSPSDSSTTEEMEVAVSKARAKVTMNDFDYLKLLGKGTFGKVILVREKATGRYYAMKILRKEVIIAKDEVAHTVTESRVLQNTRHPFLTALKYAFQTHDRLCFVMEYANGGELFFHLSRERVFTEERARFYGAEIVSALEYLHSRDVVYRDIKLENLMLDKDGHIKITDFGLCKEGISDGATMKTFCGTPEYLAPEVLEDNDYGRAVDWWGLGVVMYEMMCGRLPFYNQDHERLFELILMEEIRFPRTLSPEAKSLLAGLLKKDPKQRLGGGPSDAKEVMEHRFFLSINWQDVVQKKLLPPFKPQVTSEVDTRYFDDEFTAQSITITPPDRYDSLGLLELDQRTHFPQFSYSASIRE
Protocol: as §1

[3] = target: T3, Full length PKA (Homo sapiens, UniProt P17612); assay: PKA in vitro enzymatic assay (HTRF); settings: 0.035 nM enzyme solution, substrate solution with 5 mM ATP, 25° C. 1 hr
T3 construct: Full length PKA (cat #P2912); purchased Invitrogen P2912
Protocol: Full length PKA (cat #P2912), peptide substrate, fluorescein CREBtide peptide (cat #PV3508), Tb-Crebtide p-S133 Ab (cat #PV3566), and Lanthascreen TR-FRET Dilution Buffer stored (part # PV3574) were purchased from Invitrogen. In general, assay buffer conditions were chosen based on obtaining optimal and linear enzymatic activities. The assay buffer contains 50 mM HEPES, 10 mM MgCl2, 5 mM DTT, 0.005% Tween20 at pH 7.8. Compound stock (0.001 mM) was prepared in DMSO. The compound plate was prepared by 3-fold and 11-point serial dilutions. 0.5 μL of the compound in DMSO was transferred from the compound plate to the assay plate. 0.035 nM enzyme solution was prepared in the assay buffer. Note that the enzyme concentration given is based on the given stock concentration reported by the vendor. 0.1 μM substrate solution was prepared in the assay buffer with addition of 5 mM ATP. 10 μL of the enzyme solution was added to the assay plate and then 10 μL of substrate solution was added to the assay plate. The plate was protected from light and the reaction was incubated at 25° C. for 1 hr. The reaction was stopped by adding 10 μL of a solution containing 30 mM EDTA, and 1.5 nM Tb-Crebtide p-S133 Ab in 1× detection buffer. The plate was incubated for 15-30 min at room temperature and HTRF (homogenous time resolved fluorescence) was measured on a plate reader. Percentage of inhibition was calculated for each concentration and IC50 value was generated from curve fitting. See Table 8 for data related to compounds of the examples.

[4] = target: T4, Full length Akt3 (Homo sapiens, UniProt Q9Y243); assay: In vitro Akt kinase enzymatic assay (HTRF), Akt3; settings: 0.6 nM Akt3, substrate solution with 5 mM ATP, 25° C. 1 hr
T4 construct: Full length Akt1 (cat #P2999), Akt2 (cat #PV3184), Akt3 (cat #PV3185); purchased PerkinElmer PV3185
T4 sequence (Q9Y243 whole entry): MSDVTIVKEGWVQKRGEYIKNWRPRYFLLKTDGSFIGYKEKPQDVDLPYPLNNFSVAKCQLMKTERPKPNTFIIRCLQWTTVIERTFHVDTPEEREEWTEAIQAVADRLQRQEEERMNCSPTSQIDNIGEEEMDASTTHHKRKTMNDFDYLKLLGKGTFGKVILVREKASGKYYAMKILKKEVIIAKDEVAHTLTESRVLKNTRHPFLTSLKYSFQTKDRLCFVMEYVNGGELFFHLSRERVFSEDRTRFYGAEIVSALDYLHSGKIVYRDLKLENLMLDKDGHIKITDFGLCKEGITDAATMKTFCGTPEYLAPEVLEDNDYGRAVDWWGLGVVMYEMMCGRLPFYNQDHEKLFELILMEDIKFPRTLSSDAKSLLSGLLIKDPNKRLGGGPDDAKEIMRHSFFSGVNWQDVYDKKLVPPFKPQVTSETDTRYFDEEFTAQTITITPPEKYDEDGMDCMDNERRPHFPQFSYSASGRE
Protocol: as §1

T1 sequence (P31749 whole entry): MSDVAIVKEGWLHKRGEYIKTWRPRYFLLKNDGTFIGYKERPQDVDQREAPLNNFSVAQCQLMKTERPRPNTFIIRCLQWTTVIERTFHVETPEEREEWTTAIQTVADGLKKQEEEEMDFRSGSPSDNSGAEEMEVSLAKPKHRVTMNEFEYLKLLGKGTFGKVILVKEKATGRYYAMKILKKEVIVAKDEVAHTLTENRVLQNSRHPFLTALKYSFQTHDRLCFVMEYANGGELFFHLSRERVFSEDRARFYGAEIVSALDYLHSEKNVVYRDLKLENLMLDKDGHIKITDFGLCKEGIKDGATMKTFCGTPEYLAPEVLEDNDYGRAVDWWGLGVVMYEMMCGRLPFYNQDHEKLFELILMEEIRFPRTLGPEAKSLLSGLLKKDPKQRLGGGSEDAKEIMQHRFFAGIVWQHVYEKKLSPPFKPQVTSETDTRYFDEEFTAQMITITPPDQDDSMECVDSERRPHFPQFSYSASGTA

IC50 [1] | IC50 [2] | IC50 [3] | IC50 [4] | Compound
< 0.5 µM | 0.5 to 5 µM | > 5 µM | 0.5 to 5 µM | COc1cccc(C(CN)N2Cc3cc(-c4c(Cl)cnn4C)ccc3C2=O)c1 (centres unmarked) [Example 125, 2-[2-amino-1-(3-methoxyphenyl)ethyl]-5-(4-chloro-1-methyl-1H-pyrazol-5-yl)isoindolin-1-one]
0.5 to 5 µM | > 5 µM | > 5 µM | > 5 µM | COc1cc(C[C@@H](CN)N2Cc3cc(-c4c(Cl)cnn4C)ccc3C2=O)ccn1 [Example 64, 2-{(1S)-2-amino-1-[(2-methoxypyridin-4-yl)methyl]ethyl}-5-(4-chloro-1-methyl-1H-pyrazol-5-yl)isoindolin-1-one]
> 5 µM | > 5 µM | > 5 µM | > 5 µM | COc1ccc(C(CN)N2Cc3cc(-c4c(Cl)cnn4C)ccc3C2=O)cc1 (centres unmarked) [Example 126, 2-[2-amino-1-(4-methoxyphenyl)ethyl]-5-(4-chloro-1-methyl-1H-pyrazol-5-yl)isoindolin-1-one]
< 0.5 µM | > 5 µM | > 5 µM | 0.5 to 5 µM | Cn1cc(-c2cccc(C[C@@H](CN)N3Cc4cc(-c5c(Cl)cnn5C)ccc4C3=O)c2)cn1 [Example 70, 2-{(1S)-2-amino-1-[3-(1-methyl-1H-pyrazol-4-yl)benzyl]ethyl}-5-(4-chloro-1-methyl-1H-pyrazol-5-yl)isoindolin-1-one]
0.5 to 5 µM | 0.5 to 5 µM | > 5 µM | > 5 µM | Cn1ncc(Cl)c1-c1ccc2c(c1)CN([C@H](CNC1CCOCC1)Cc1cccc(F)c1)C2=O [Example 36, 5-(4-chloro-1-methyl-1H-pyrazol-5-yl)-2-[(1S)-1-(3-fluorobenzyl)-2-(tetrahydro-2H-pyran-4-ylamino)ethyl]isoindolin-1-one]
> 5 µM | > 5 µM | > 5 µM | > 5 µM | Cn1ncc(-c2ccc(F)nc2)c1-c1ccc2c(c1)CN([C@H](CN)Cc1cccc(F)c1)C2=O [Example 25, 2-[(1S)-2-amino-1-(3-fluorobenzyl)ethyl]-5-[4-(6-fluoropyridin-3-yl)-1-methyl-1H-pyrazol-5-yl]isoindolin-1-one]
< 0.5 µM | 0.5 to 5 µM | > 5 µM | 0.5 to 5 µM | Cn1nccc1-c1ccc2c(c1)CN([C@H](CN)Cc1cccc(-c3ccsc3)c1)C2=O [Example 84, 2-{(1S)-2-amino-1-[3-(3-thienyl)benzyl]ethyl}-5-(1-methyl-1H-pyrazol-5-yl)isoindolin-1-one]
0.5 to 5 µM | 0.5 to 5 µM | > 5 µM | > 5 µM | Cn1cc(-c2cccc(C[C@@H](CN)N3Cc4cc(-c5ccnn5C)ccc4C3=O)c2)cn1 [Example 83, 2-{(1S)-2-amino-1-[3-(1-methyl-1H-pyrazol-4-yl)benzyl]ethyl}-5-(1-methyl-1H-pyrazol-5-yl)isoindolin-1-one]
< 0.5 µM | 0.5 to 5 µM | > 5 µM | 0.5 to 5 µM | Cn1ncc(Cl)c1-c1ccc2c(c1)CN([C@H](CN)Cc1ccc(C#N)cc1)C2=O [Example 63, 4-{(2S)-3-amino-2-[5-(4-chloro-1-methyl-1H-pyrazol-5-yl)-1-oxo-1,3-dihydro-2H-isoindol-2-yl]propyl}benzonitrile]
> 5 µM | > 5 µM | > 5 µM | > 5 µM | CN(C)CC(c1ccccc1)N1Cc2cc(-c3c(Cl)cnn3C)ccc2C1=O (centres unmarked) [Example 121, 5-(4-chloro-1-methyl-1H-pyrazol-5-yl)-2-[2-(dimethyl-amino)-1-phenylethyl]iso-indolin-1-one]
0.5 to 5 µM | 0.5 to 5 µM | > 5 µM | 0.5 to 5 µM | Cn1ncc(Cl)c1-c1ccc2c(n1)CN([C@H](CN)Cc1ccccc1)C2=O [Example 112, 6-[(1S)-2-amino-1-benzylethyl]-2-(4-chloro-1-methyl-1H-pyrazol-5-yl)-6,7-dihydro-5H-pyrrolo[3,4-b]pyridin-5-one]
< 0.5 µM | 0.5 to 5 µM | > 5 µM | 0.5 to 5 µM | Cn1ncc(Cl)c1-c1ccc2c(c1)CN([C@H](CNC1CC1)Cc1cccc(F)c1)C2=O [Example 33, 5-(4-chloro-1-methyl-1H-pyrazol-5-yl)-2-[(1S)-2-(cyclopropylamino)-1-(3-fluorobenzyl)ethyl]isoindolin-1-one]
< 0.5 µM | < 0.5 µM | > 5 µM | < 0.5 µM | CCCOCc1cnn(C)c1-c1cc2c(cn1)C(=O)N([C@H](CN)Cc1cccc(F)c1)C2 [Example 96, 2-[(1S)-2-amino-1-(3-fluorobenzyl)ethyl]-6-[4-(1-propoxymethyl)-1-methyl-1H-pyrazol-5-yl]-1,2-dihydro-3H-pyrrolo[3,4-c]pyridin-3-one]
0.5 to 5 µM | > 5 µM | > 5 µM | > 5 µM | COc1cc(C[C@@H](CN)N2Cc3cc(-c4ccnn4C)ccc3C2=O)ccn1 [Example 77, 2-{(1S)-2-amino-1-[(2-methoxypyridin-4-yl)methyl]ethyl}-5-(1-methyl-1H-pyrazol-5-yl)isoindolin-1-one]
> 5 µM | > 5 µM | > 5 µM | > 5 µM | COc1ncccc1-c1cnn(C)c1-c1ccc2c(c1)CN([C@H](CN)Cc1cccc(F)c1)C2=O [Example 27, 2-[(1S)-2-amino-1-(3-fluorobenzyl)ethyl]-5-[4-(2-methoxypyridin-3-yl)-1-methyl-1H-pyrazol-5-yl]isoindolin-1-one]
0.5 to 5 µM | > 5 µM | > 5 µM | < 0.5 µM | Cn1ncc(-c2ccc3ccccc3c2)c1-c1ccc2c(c1)CN([C@H](CN)Cc1cccc(F)c1)C2=O [Example 21, 2-[(1S)-2-amino-1-(3-fluorobenzyl)ethyl]-5-[1-methyl-4-(2-naphthyl)-1H-pyrazol-5-yl]isoindolin-1-one]
< 0.5 µM | 0.5 to 5 µM | > 5 µM | 0.5 to 5 µM | CC(C)OCc1cnn(C)c1-c1ccc2c(c1)CN([C@@H](CN)c1ccccc1)C2=O [Example 122, 2-[(1R)-2-amino-1-phenylethyl]-5-[4-(2-propoxymethyl)-1-methyl-1H-pyrazol-5-yl]iso-indolin-1-one]
> 5 µM | > 5 µM | > 5 µM | > 5 µM | Cn1ncc(-c2cncnc2)c1-c1ccc2c(c1)CN([C@H](CN)Cc1cccc(F)c1)C2=O [Example 23, 2-[(1S)-2-amino-1-(3-fluorobenzyl)ethyl]-5-(1-methyl-4-pyrimidin-5-yl-1H-pyrazol-5-yl)isoindolin-1-one]
< 0.5 µM | > 5 µM | > 5 µM | 0.5 to 5 µM | CCN(CC)C[C@H](Cc1cccc(F)c1)N1Cc2cc(-c3c(Cl)cnn3C)ccc2C1=O [Example 39, 5-(4-chloro-1-methyl-1H-pyrazol-5-yl)-2-[(1S)-2-(diethylamino)-1-(3-fluorobenzyl)ethyl]isoindolin-1-one]
< 0.5 µM | 0.5 to 5 µM | > 5 µM | > 5 µM | Cn1nccc1-c1ccc2c(c1)CN(C(CN)c1ccc(F)cc1)C2=O (centres unmarked) [Example 118, 2-[2-amino-1-(4-fluorophenyl)ethyl]-5-(1-methyl-1H-pyrazol-5-yl)isoindolin-1-one]
